{"source": "patent US8383136B2", "about": "“Micelle encapsulation of therapeutic agents” (Wisconsin Alumni Research Foundation, priority 2009, dated 2013)", "key": {"[1]": {"test": "Dynamic light scattering size of SDM and MDM", "format": "physicochemical", "conditions": "DLS, drug-loaded SDM or MDM", "procedure": "The drug-loaded micellar solutions were diluted 20 times with DD H2O and the samples was equilibrated for 2 min at 25° C. before the measurements. […] The hydrodynamic diameter of PEG-b-PLA micelles was calculated based on the Stokes-Einstein equation. Correlation function was curve fitted by cumulant method to calculate mean size and polydispersion index (PDI). All measurements were repeated three times, and volume-weighted particle sizes were presented as the average diameter with standard deviation."}, "[2]": {"test": "Acute toxicity experiments in FVB female albino mice", "conditions": "PEG-b-PLA micelles, 3 IV injections days 0, 4, 8; paclitaxel 60, 17-AAG 60, rapamycin 30 mg/kg", "procedure": "Briefly, acute toxicity experiments were carried out in FVB female albino mice with 3 IV injections on days 0, 4, and 8, measuring body weights and monitoring survival over 12 days (FIG. 21)."}, "[3]": {"test": "In vitro drug release from PEG-b-PLA micelles (dialysis method)", "format": "physicochemical", "conditions": "SDM, dialysis; listed as PTX", "procedure": "(§1) SDMs or MDMs were prepared and characterized as described above. Post micelle preparation each sample was diluted with DD H2O, to yield about 0.10 mg/mL of each drug. A volume of 2.5 mL of the prepared sample was loaded into a 3 mL Slide-A-Lyzer® (Thermo Scientific Inc.) dialysis cassette with a MWCO of 20,000 g/mol. Four cassettes were used in each experiment. The cassettes were placed in 2.0 L of buffer which was changed every 3 hours to ensure sink conditions for drug(s) and polymer. A sample of 100 μL was drawn from each cassette at various sampling time intervals and then replaced with 100 μL of fresh buffer. […] The amount of drug(s) in each sample was quantified by HPLC as described above.\nStatistical analysis was performed using one-way ANOVA at 5% significance level combined with Tukey's Multiple Comparison Test or t-test at 5% significance level. Curve-fitting analysis using one phase exponential association was used to calculate the half-life (t1/2) of drug in in vitro drug release experiments. Both analyses were performed using GraphPad Prism version 5.00 for Windows, Graph-Pad Software, San Diego Calif. USA, www.graphpad.com.\nas §1, with “Post-micelle preparation,” for “Post micelle preparation”, “yield samples of” for “yield”, “reverse phase HPLC.” for “HPLC as described above.”"}, "[4]": {"test_system": "4T1 murine breast cancer cells", "test": "In vitro cytotoxicity, resazurin assay, and combination index", "format": "cell-based", "conditions": "drug(s) in SDM or MDM, 72 hours, unit inferred, PTX/17-AAG 4.7:1, RAP/17-AAG 1:1, RAP/PTX 1:1, RAP/PTX/17-AAG 1:5:1, read-out: IC50", "procedure": "MCF-7 human breast cancer cells were cultured in DMEM medium while 4T1 murine breast cancer cells, A549 human non-small cell lung cancer cells, and LS180 human colon cancer cells were cultured in RPMI1640 medium. Both media were supplemented with 10% fetal bovine serum (FBS) with antibiotics under 5% CO2 and 37° C. in an incubator. […] Free drugs were dissolved in DMSO, and drug-loaded PEG-b-PLA micelles were in deionized water. […] […] The metabolic conversion of resazurin dye by each viable cancer cell was quantified using a fluorescence cell plate reader (SpectraMax M2, Molecular Devices, USA) to estimate cell viability. […] IC50 values of free drugs and drug-loaded PEG-b-PLA micelles were calculated based on median-effect equation using Compusyn software (ver. 1.0).\n(§2) CI values were obtained at IC50 values for 2- or 3-drug combinations. CI<1, C=1, and CI>1 were used as criteria to determine whether 2- or 3-drug combinations are synergistic, additive, and antagonistic, respectively (FIGS. 13-20)."}, "[5]": {"test": "Drug solubilization by PEG-b-PLA micelles (drug level in water, reverse phase HPLC)", "conditions": "analyte paclitaxel, SDM or MDM, PEG-b-PLA (4.2K:1.9K) micelles", "experimental": "The drug-polymer mixture was dissolved in 0.50 mL acetonitrile (ACN). The ACN was removed at 60° C. under reduced pressure on a rotary evaporator resulting in the formation of a homogenous film, The drug-polymer film was rehydrated with 0.50 mL of DD H2O at 60° C. with gentle agitation resulting in a clear solution of drug-loaded PEG-b-PLA micelles. The micellar solution was filtered using a 0.45 μm filter, and the micelles were characterized in terms of size and loading by Dynamic Light Scattering (DLS) and HPLC respectively.\nMDMS were prepared similarly to the SDMs by mixing 2.0 mg of each drug with 15 mg of the polymer. The procedure for the preparation and characterization of these micelles was identical to the SDMs.\nThe content of drug loaded in PEG-b-PLA micelles was quantified by reverse phase HPLC. The HPLC system used for quantifying was a Shimadzu prominence HPLC system (Shimadzu, JP), consisting of a LC-20AT pump, SIL-20AC HT autosampler, CTO-20AC column oven and a SPD-M20A diode array detector. A sample of 10 μL was injected into a Zorbax SB-C8 Rapid Resolution cartridge (4.6×75 mm, 3.5 micron, Agilent). The column temperature was maintained at 40° C. throughout the run. Two HPLC methods were developed to quantify the amount of the drug(s) loaded in PEG-b-PLA micelles.\nThe mobile phase was an isocratic mixture of 45% ACN and 54% aqueous phase containing 0.1% phosphoric acid and 1% methanol in DD H2O.\nThe mobile phase was a gradient mixture of ACN and aqueous phase containing 0.1% phosphoric acid and 1% methanol in DD H2O. […] With both HPLC methods samples were injected twice and reproducible and rapid separation of the drugs was achieved.\nMn of PEG and PLA of PEG-b-PLA was 4,200 and 1,900 g/mol, respectively (APC Inc., UK). ACN was removed by heating at 60° C. and reduced pressure. The resultant dry polymer film containing anti-cancer agent(s) was dissolved by addition of water (0.50 mL) at 60° C. with gentle agitation.\nThe resultant dry PEG-b-PLA film containing drugs was dissolved by the addition of water (0.50 mL) at 60° C. with gentle agitation."}, "[6]": {"test_system": "MCF-7 human breast cancer cells", "test": "In vitro cytotoxicity, resazurin assay, and combination index", "format": "cell-based", "conditions": "Homo sapiens, MCF7, 72 h; read-out: IC50", "procedure": "(§3) MCF-7 human breast cancer cells were cultured in DMEM medium while 4T1 murine breast cancer cells, A549 human non-small cell lung cancer cells, and LS180 human colon cancer cells were cultured in RPMI1640 medium. Both media were supplemented with 10% fetal bovine serum (FBS) with antibiotics under 5% CO2 and 37° C. in an incubator. […] Free drugs were dissolved in DMSO, and drug-loaded PEG-b-PLA micelles were in deionized water. The samples were diluted with cell culture media to make 0.10, 1.0, 10, 100 and 1000 nM in 96 well plates. […] The metabolic conversion of resazurin dye by each viable cancer cell was quantified using a fluorescence cell plate reader (SpectraMax M2, Molecular Devices, USA) to estimate cell viability. […] IC50 values of free drugs and drug-loaded PEG-b-PLA micelles were calculated based on median-effect equation using Compusyn software (ver. 1.0).\nas §2"}, "[7]": {"test_system": "A549 human non-small cell lung cancer cells", "test": "In vitro cytotoxicity, resazurin assay, and combination index", "format": "cell-based", "conditions": "drug(s) in SDM or MDM, 72 hours, unit inferred, PTX/17-AAG 4.7:1, RAP/17-AAG 1:1, RAP/PTX 1:1, RAP/PTX/17-AAG 1:5:1, read-out: IC50", "procedure": "as §3, §2"}, "[8]": {"test": "% drug loading of PEG-b-PLA micelles (wt drug(s)/wt polymer)", "format": "physicochemical", "conditions": "all drugs of the SDM or MDM together, PEG-b-PLA (4.2K:1.9K) micelles", "procedure": "Drug(s) to polymer w/w percent was calculated for SDM and MDM. PEG-b-PLA micelles were freeze dried, weighed and the amount of drug(s) in the freeze dried sample was quantified by HPLC. The drug w/w percent was calculated as the mass of the drug(s) to the mass of polymer in the freeze dried sample multiplied by 100."}, "[9]": {"test_system": "H-358 human non-small-cell lung cancer xenografts", "conditions": "combined with 17-AAG; cited from earlier work"}, "[10]": {"conditions": "without micelles; cited from earlier work"}, "[11]": {"test": "Physical stability / drug loss from PEG-b-PLA micelles after 24 hours (turbidity, HPLC)", "format": "physicochemical", "procedure": "Turbidity measurements were used to evaluate the physical stability of drug-loaded PEG-b-PLA micelles. A CARY 50 BIO UV-Visible spectrophotometer equipped with dip probe was used to measure turbidity. Micellar solutions were diluted six times, for a final concentration of PEG-b-PLA of 5 mg/mL, with DD H2O and filtered through 0.45 μm filter. […] Each measurement was performed in triplicate."}, "[12]": {"conditions": "analyte paclitaxel, PEG-b-PLA micelles"}}, "note": "“And” between values parts separate entries of the source, which are not always exact repeats. Equal entries are not always repeated. “Also recorded” adds a separate entry of the source.", "data": [{"molecule": "CC(=O)O[C@H]1C(=O)[C@@]2(C)[C@H]([C@H](OC(=O)c3ccccc3)[C@]3(O)C[C@H](OC(=O)[C@H](O)[C@@H](NC(=O)c4ccccc4)c4ccccc4)C(C)=C1C3(C)C)[C@]1(OC(C)=O)CO[C@@H]1C[C@@H]2O", "note": "[Paclitaxel]", "values": [{"measurement": "PEG-b-PLA micelle diameter", "setting": "[1]", "value": "38.8 ± 0.6", "unit": "nm"}, {"measurement": "acute toxicity", "setting": "[2]", "value": "low"}, {"measurement": "behaviour of PTX during the release test", "setting": "[3]", "value": "Rapid precipitation; also recorded: precipitated during release"}, {"measurement": "IC50", "setting": "[4]", "value": "11200 ± 4160", "unit": "nM"}, {"measurement": "drug level in water", "setting": "[5]", "value": "3540 ± 320", "unit": "µg/mL"}, {"measurement": "drug level in water", "setting": "[5]; listed as PTX", "value": 3500, "unit": "µg/mL"}, {"measurement": "IC50", "setting": "[6]", "value": "226 ± 32", "unit": "nM"}, {"measurement": "IC50", "setting": "[7]", "value": "397 ± 59", "unit": "nM"}, {"measurement": "% drug loading (wt. drug(s)/wt. polymer)", "setting": "[8]", "value": "11.8 ± 1.1% and 10.3 ± 0.9%"}, {"measurement": "% drug loading (wt. drug(s)/wt. polymer)", "setting": "[8]; listed as PTX", "value": 10.3, "unit": "%"}, {"measurement": "enhancement of PTX cytotoxicity", "setting": "[9]", "value": "5-22 fold"}, {"measurement": "solubility of paclitaxel in water", "setting": "[10]", "value": "approximately 1 μg/mL"}, {"measurement": "drug precipitated at 24 hours", "setting": "[11]; SDM, HPLC data", "value": "approximately 84%"}, {"measurement": "% w/w drug(s) left @ 24 hr", "setting": "[11]; [12]", "value": "16.2 ± 1.0", "unit": "% w/w"}, {"measurement": "initial drug level in water", "setting": "[11]; [12]", "value": "3.54 ± 0.32", "unit": "mg/mL"}, {"measurement": "drug level @ 24 hr in water", "setting": "[11]; analyte paclitaxel, PEG-b-PLA micelles, 24 hr", "value": "570 ± 70", "unit": "µg/mL"}, {"measurement": "time the micelles were physically stable", "setting": "[11]; turbidity, ambient temperature", "value": "approximately 6 hours"}]}]}
